PMC11802874, “The hypolipidemic effect of MI-883, the combined CAR agonist/ PXR antagonist, in diet-induced hypercholesterolemia model” (Nature Communications, 2025)
Several values for one entry are separate records, joined by “and”; a condition that tells them apart may be missing. Equal values may be shown once.

Key:
[1] = biological target: T1, Human recombinant CYP3A4 (Homo sapiens, UniProt P08684); assay: CYP450-Glo CYP3A4 enzymatic activity assay; assay type: biochemical; settings: for Inhibition assays, CYP3A4 activity (replicates): log[Agonist]
T1 construct: purchased Promega; host or cells: baculovirus-infected insect cells
Source text: Data are presented as means±S.D. from three independent measurements.

[2] = system: humanized PXR-CAR-CYP3A4/3A7 mice; assay: Glucose homeostasis: IPGTT, IPITT, glycemia, insulin (HFD study); assay type: in vivo, mouse; parameters: insulinemia: unit not given here
Experimental: Intraperitoneal glucose tolerance test (IPGTT) and Intraperitoneal Insulin Tolerance Test (IPITT) assays were performed one week before the end of the HFD study. For IPGTT, mice fasted for 18 h were intraperitoneally injected with 20% D-glucose solution (2 g/kg BW). Blood was sampled before the injection and 15, 30, 60, and 120 min after. For the IPITT assay, mice fasted for 4 h were administered with 0.75 IU insulin/kg BW. Blood was sampled before the injection and 15, 30, 45, 60, and 90 min after.

[3] = biological target: T2, human CAR ligand-binding domain (LBD) (Homo sapiens, UniProt Q14994); assay: TR-FRET CAR coactivator assay (LanthaScreen); assay type: biochemical
T2 construct: purchased ThermoFisher Scientific PV4836

[4] = system: humanized PXR-CAR-CYP3A4/3A7 mice fed HFD; assay: High-fat diet (HFD) study: weights, food intake, plasma biochemistry, histology; assay type: in vivo, mouse; parameters: BW (Fig 4b) / LW (Fig 4b) / LDL (Fig. 4e) / HDL (Fig. 4e) / TG (Fig. 4e) / Chol (Fig. 4e) / Glu (Fig. 4e) / food intake (Fig 4c) / AST / ALT / ALB / ALP / LDH / Urea / Uric acid / Fe / Bilirubin / CREZ / BW: unit not given here; settings: for BW: FigS12c, group mean
Experimental: For experiment involving a HFD in the model of diet-induced metabolic syndrome and type 2 diabetes with hypercholesterolemia, both male and female mice at the age of 10–15 weeks were pretreated for 8 weeks with HFD (E15186 EF R/M with 30% fat, ssniff ®, Soest, Germany) containing 30.1% crude fat, 20.8% protein and 171 mg/kg of cholesterol, ad libitum (Fig. 4a). Mice were then randomly assigned to MI-883 or control groups (17 male animals per group for the control or MI-883-treated group, 15 female animals per group for control and MI-883 treated groups, respectively). They were administered via oral gavage with either MI-883 treatment (5 mg/kg, 3x per week on Mo, We, Fri) or vehicle (5%DMSO/5%PEG300/90%corn oil) while still fed with HFD. Mice were sacrificed after 4 weeks of treatment.
Mice were weighted and tissues (livers, blood, duodenum, jejunum, ileum, white fat) were removed, weighted and snap frozen in liquid nitrogen and stored at –80 °C until analysis. Blood was collected from the retro-orbital sinus of mice under isoflurane anesthesia into heparin-coated tubes (Kabe Laboratortechnik GmbH, Nümbrecht-Elsenroth, Germany) after 3 h fasting and analyzed on AU480 biochemistry analyzer (Beckman Coulter, Brea, USA). Sample preparation for bile acid and cholesterol analyses from tissues or feces is described below. One of the liver lobes was fixed in formalin, embedded in paraffin blocks, sectioned, and subjected to H&E staining. Blood was analyzed as described in Supplementary, Chapter 10.
Blood was collected from the retro-orbital sinus of mice under isoflurane anesthesia into heparin-coated tubes (Kabe Laboratortechnik GmbH, Nümbrecht-Elsenroth, Germany) after 3 hours of fasting. Blood was left for 10 minutes at room temperature, and then kept on ice until centrifugation (5,000 g at 4°C for 10 minutes). The collected plasma was stored at -80 °C until measurement. Lipoprotein levels and other plasmatic parameters were measured on an AU480 biochemistry analyzer (Beckman Coulter, Brea, USA).

[5] = HFD and HCD studies (Fig. 4e, h)
[6] = HFD, MI883 HFD, individual animals
[7] = chow / vehicle / MI-883, individual animals
[8] = individual animals, MI-883 vs vehicle
[9] = normal diet, individual animals

T2 sequence (Q14994 109-348 isoform Q14994-2 limits assumed, other chains not shown): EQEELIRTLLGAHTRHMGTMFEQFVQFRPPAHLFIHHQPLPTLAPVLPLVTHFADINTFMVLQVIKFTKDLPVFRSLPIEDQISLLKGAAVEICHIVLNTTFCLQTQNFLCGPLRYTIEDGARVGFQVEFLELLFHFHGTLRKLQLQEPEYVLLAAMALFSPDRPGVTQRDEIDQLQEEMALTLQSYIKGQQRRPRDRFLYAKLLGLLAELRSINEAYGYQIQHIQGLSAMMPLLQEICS
T1 sequence (P08684 whole entry): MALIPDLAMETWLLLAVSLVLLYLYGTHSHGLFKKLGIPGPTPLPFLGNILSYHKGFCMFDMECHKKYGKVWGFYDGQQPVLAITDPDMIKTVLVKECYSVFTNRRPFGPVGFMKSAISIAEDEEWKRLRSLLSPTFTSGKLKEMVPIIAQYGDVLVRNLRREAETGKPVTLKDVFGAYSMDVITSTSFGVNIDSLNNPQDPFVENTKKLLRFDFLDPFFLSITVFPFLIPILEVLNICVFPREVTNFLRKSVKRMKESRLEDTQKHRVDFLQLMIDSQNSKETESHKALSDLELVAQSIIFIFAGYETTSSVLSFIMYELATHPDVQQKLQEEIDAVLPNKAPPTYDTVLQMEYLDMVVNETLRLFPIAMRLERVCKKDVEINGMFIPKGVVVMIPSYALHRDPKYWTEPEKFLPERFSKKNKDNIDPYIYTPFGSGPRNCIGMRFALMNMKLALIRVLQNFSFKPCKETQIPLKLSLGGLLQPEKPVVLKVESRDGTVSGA

Structure (SMILES): NC(=O)c1cc(Cn2cc(-c3c(-c4ccc(Cl)cc4)nc4cc(F)ccn34)nn2)ccc1Cl [MI-883, 2-chloro-5-((4-(2-(4-chlorophenyl)-7-fluoroimidazo[1,2-a]pyridin-3-yl)-1H-1,2,3-triazol-1-yl)methyl)benzamide]
- inhibition of CYP3A4 activity [1]: weak inhibitor
- Inhibition assays, CYP3A4 activity (replicates) ([1]; M 0): 106 and 134
- Inhibition assays, CYP3A4 activity (replicates) ([1]; M 0.5): 69 and 79 and 81
- Inhibition assays, CYP3A4 activity (replicates) ([1]; M 1): 66 and 67 and 61
- Inhibition assays, CYP3A4 activity (replicates) ([1]; M -0.5): 128 and 118 and 132
- Inhibition assays, CYP3A4 activity (replicates) ([1]; M -1): 126 and 125 and 123
- Inhibition assays, CYP3A4 activity (replicates) ([1]; M -2): 89 and 124
- Inhibition assays, CYP3A4 activity (replicates) ([1]; M -2.5): 100
- Inhibition assays, CYP3A4 activity (replicates) ([1]; M -3): 100
- Inhibition assays, CYP3A4 activity (replicates) ([1]; M -3.5): 100
- Inhibition assays, CYP3A4 activity (replicates) ([1]; M -4): 100
- Inhibition assays, CYP3A4 activity (replicates) ([1]; M -4.5): 100
- insulinemia ([2]; HFD study): no effect
- postprandial glucose concentrations in IPGTT or IPITT ([2]; HFD study): did not significantly decrease
- plasma glucose levels ([2]; both studies): no effect
- TR-FRET CAR Coactivator assay, mean signal (Fig. 1b) ([3]; 100pM): 1
- TR-FRET CAR Coactivator assay, mean signal (Fig. 1b) ([3]; 1nM): 1.012
- TR-FRET CAR Coactivator assay, mean signal (Fig. 1b) ([3]; 10nM): 1.235
- TR-FRET CAR Coactivator assay, mean signal (Fig. 1b) ([3]; 100nM): 1.572
- TR-FRET CAR Coactivator assay, mean signal (Fig. 1b) ([3]; 0.5μM): 1.870
- TR-FRET CAR Coactivator assay, mean signal (Fig. 1b) ([3]; 1 μM): 2.020
- TR-FRET CAR Coactivator assay, mean signal (Fig. 1b) ([3]; 10 μM): 2.020
- TR-FRET CAR Coactivator assay, mean signal (Fig. 1b) ([3]; 30 μM): 2.046
- EC50 ([3]; recombinant CAR LBD): 73 ± 20 nM
- BW ([4]; time point 0): 100
- BW ([4]; time point 3): 99.94
- BW ([4]; time point 4): 99.69
- BW ([4]; time point 7): 98.81
- BW ([4]; time point 8): 98.7
- BW ([4]; time point 9): 99.01
- BW ([4]; time point 11): 97.62
- BW ([4]; time point 14): 97.62
- BW ([4]; time point 16): 98.66
- BW ([4]; time point 18): 95.35
- BW ([4]; time point 21): 95.54
- BW ([4]; time point 25): 95.05
- hepatic histology, morphology, steatosis with ballooning cells ([4]; H&E staining): did not observe affected hepatic histology, morphology, and steatosis
- plasma HDL cholesterol concentrations in males ([4]; HFD and HCD studies): decrease
- plasma LDL cholesterol levels [4, 5]: systematic decrease
- total plasma cholesterol concentration [4, 5]: systematic decrease
- ALB ([4]; HFD female, individual animals): 24.33 and 24.2 and 23.24 and 26.55 and 24.9
- ALP ([4]; HFD female, individual animals): 113 and 92 and 67 and 82 and 103 and 98 and 123 and 110 and 111 and 88 and 70 and 60 and 74 and 94 and 83 and 97
- ALT ([4]; HFD female, individual animals): 22 and 33 and 42 and 31 and 44 and 26 and 25 and 20 and 30 and 27
- AST ([4]; HFD female, individual animals): 36 and 56 and 60 and 42 and 80 and 46 and 43 and 45 and 48 and 52
- Bilirubin ([4]; HFD female, individual animals): 1.91 and 1.99 and 1.49 and 1.73 and 2.08 and 1.88 and 2.79 and 0.89 and 1.63 and 0.8 and 1.21 and 0.66 and 1.02 and 0.93
- CREZ ([4]; HFD female, individual animals): 8.81 and 10.944 and 9.86 and 9.877 and 9.32 and 9.613 and 6.396
- Fe ([4]; HFD female, individual animals): 19.66 and 16.34 and 16.57 and 13.12 and 20.06 and 22.23 and 20.85
- LDH ([4]; HFD female, individual animals): 105.53 and 141.23 and 148.87 and 187.77 and 168.5 and 171.83 and 139.86 and 141.62 and 132.6 and 117.06 and 243.58 and 169.43 and 199.88 and 175.99 and 186.41 and 240.46 and 159.98
- Urea ([4]; HFD female, individual animals): 6.32 and 7.96 and 9.13 and 6.71 and 5.59 and 7.45 and 7.35 and 5.3
- body weight or food intake ([4]; HFD, 5 mg/kg 3× per week p.o., one month): no significant effect
- liver weight (LW) and liver-to-body weight (LW/BW) ([4]; HFD, after 1-month application): increase
- ALB [4, 6]: 30.28 and 28.44 and 27.19 and 26.19 and 27.85 and 26.86 and 29.5 and 28.87 and 29.11 and 28.18 and 27.81 and 29.6 and 31.94 and 31.6 and 25.37 and 30.94
- ALP [4, 6]: 46 and 65 and 58 and 53 and 57 and 59 and 87 and 78 and 134 and 85 and 147 and 42 and 80 and 203 and 48 and 62 and 47
- ALT [4, 6]: 111 and 104 and 91 and 82 and 86 and 81 and 194 and 185 and 231 and 101 and 144 and 333 and 40 and 171 and 279 and 78 and 136 and 35
- AST [4, 6]: 61 and 103 and 71 and 75 and 84 and 65 and 111 and 106 and 115 and 97 and 60 and 215 and 57 and 86 and 96 and 62
- Bilirubin [4, 6]: 6.24 and 2.33 and 2.77 and 2.03 and 2.43 and 2.14 and 2.07 and 1.65 and 0.69 and 0.83 and 0.78 and 2.19 and 1.62 and 2.1 and 2.2 and 2.29 and 2.82 and 3.89
- CREZ [4, 6]: 6.64 and 6.515 and 6.651 and 6.864 and 6.4 and 11.788 and 9.016 and 8.705 and 10.01 and 10.479 and 10.075 and 9.458 and 9.179 and 10.214 and 7.193 and 7.711
- Fe [4, 6]: 25.96 and 27.35 and 19.07 and 29.46 and 21.87 and 40.46 and 33.38 and 35.58 and 29.04 and 23.68 and 27.39 and 20.96 and 37.12 and 36.65 and 34.04 and 37.51 and 32.98 and 21.67 and 30.02 and 31.93
- LDH [4, 6]: 198.22 and 263.31 and 253.93 and 193.25 and 209.81 and 272.82 and 399.88 and 396.59 and 572.08 and 407.53 and 224.02 and 465.2 and 571.59 and 132.99 and 401.74 and 1012.86 and 180.55 and 261.31 and 251.38 and 204.74
- Urea [4, 6]: 8.86 and 6.88 and 6.46 and 8.34 and 10.25 and 5.64 and 6.34 and 6.16 and 6.83 and 6.9 and 7.15 and 6.75 and 6.76 and 5.98 and 5.4
- Uric acid [4, 6]: 34.39 and 75.29 and 81.6 and 51.23 and 51.93 and 56.87 and 65.17 and 44.52 and 78.74 and 74.95 and 74.71 and 112.08 and 32.89 and 40.5 and 30.33 and 46.79 and 41.52 and 45.58 and 40.84
- food intake (Fig 4c) ([4]; MI-883 vs vehicle line): 2.1 and 3.3 and 2.8 and 2.6 and 2.7
- triglycerides and glucose concentrations in males ([4]; both studies): did not see any significant effects
- signs of hepatotoxicity or nephrotoxicity based on biochemical parameters ([4]; both studies (HFD, HCD)): did not observe
- other plasma biochemical parameters ([4]; both studies, Supplementary Fig. 11): did not impact
- Chol (Fig. 4e) [4, 7]: 4.25 and 4.28 and 2.95 and 3.55 and 3.29 and 4.43 and 4.16 and 4.71 and 4.02 and 3.77 and 3.86 and 4.66 and 3.96 and 4.68 and 3.68
- Glu (Fig. 4e) [4, 7]: 10.58 and 14.95 and 11.18 and 14.52 and 13.99 and 12.86 and 13.45 and 16.77 and 19.28 and 18.71 and 17.05 and 15.9 and 14.58 and 9.64 and 14.8 and 12.42
- HDL (Fig. 4e) [4, 7]: 3.307 and 3.291 and 2.143 and 2.747 and 3.405 and 3.464 and 3.127 and 2.59 and 3.382 and 3.348 and 3.749 and 3.32 and 3.251 and 2.944 and 3.197 and 2.432 and 3.457 and 2.752
- LDL (Fig. 4e) [4, 7]: 0.69 and 0.66 and 0.46 and 0.49 and 0.67 and 0.52 and 0.82 and 0.7 and 1.08 and 0.75 and 0.63 and 0.85 and 1.01 and 0.81
- TG (Fig. 4e) [4, 7]: 3.307 and 3.291 and 2.143 and 2.747 and 3.405 and 3.464 and 3.127 and 2.59 and 3.382 and 3.348 and 3.749 and 3.32 and 3.251 and 2.944 and 3.197 and 2.432 and 3.457 and 2.752
- BW (Fig 4b) [4, 8]: 36.3 and 38.1 and 36.8 and 38.8 and 38 and 34.3 and 36.4 and 31 and 45.2 and 42 and 35.4 and 38.9 and 39.5 and 42.8 and 39.3 and 39.9 and 40 and 37 and 42.6 and 40.9 and 39.2 and 38.5
- LW (Fig 4b) [4, 8]: 2.77 and 2.32 and 1.65 and 2.28 and 2.58 and 2.48 and 2.14 and 2.06 and 1.7 and 3.5 and 3.3 and 1.85 and 3.4 and 3.1 and 4.26 and 3.42 and 3.33 and 3.06 and 2.35 and 3.38 and 2.25 and 3.12 and 1.56
- diarrhea ([4]; mouse, in vivo): did not observe any diarrhea
- Chol (Fig. 4e) [4, 9]: 1.85 and 1.75
- Glu (Fig. 4e) [4, 9]: 12.37 and 16.62
- HDL (Fig. 4e) [4, 9]: 1.205 and 1.168
- LDL (Fig. 4e) [4, 9]: 0.45 and 0.42
- TG (Fig. 4e) [4, 9]: 1.205 and 1.168
